Literature values, collected in patent US12387828B2, “System and method for ranking options for medical treatments” (PRXCISION LLC, priority 2015, dated 2025).

[1] = model value, multiplied by (WT/70)

CLt (total clearance) (equation in CLcr (mL/min) and WT (kg)): (10.2+2.08×CLcr)×(WT/70)×0.06
CLd (distributional clearance) [1]: 18.6 L/h
Vc (volume of the central compartment) [1]: 10.8 L
Vp (peripheral compartment volume) [1]: 12.6 L
Compound: C[C@@H](O)[C@H]1C(=O)N2C(C(=O)O)=C(S[C@@H]3CN[C@H](C(=O)N(C)C)C3)[C@H](C)[C@H]12 [meropenem]
